Measured values taken from article PMC3931943, “Extraction of tamoxifen and its metabolites from formalin-fixed, paraffin-embedded tissues: an innovative quantitation method using liquid chromatography and tandem mass spectrometry” (Cancer Chemotherapy and Pharmacology, 2014).

Tests used:
[1] = LC-MS/MS quantitation of TAM and its metabolites in archival FFPE breast tumor tissue of TAM-treated patients; type: in vivo, human; conditions: for Mean concentration in FFPE tissue, tumor recurrent patients: breast tumor recurrence patients (n = 16), mean 26 months on TAM; for Mean concentration in FFPE tissue, tumor recurrent patients / Mean concentration in FFPE tissue, tumor non-recurrent patients: 20 mg/day TAM for at least 6 months, mean ± SEM, Z-isomers quantitated; for Mean concentration in FFPE tissue, tumor non-recurrent patients: patients without tumor recurrence (n = 8), mean 22 months on TAM
Experimental: This study was approved by the Conjoint Health Research Ethics Board. FFPE tissue blocks were acquired from the archives of the pathology department at Foothills Medical Centre (Calgary, AB, Canada). Patients who had estrogen-receptor positive breast cancers diagnosed from 1990 to 2010 and treated with standard doses of TAM (20 mg/day of TAM for at least 6 months until time of biopsy with a treatment plan of 5 years on TAM) were selected for investigation. Patients were divided into two groups categorized as breast tumor recurrence (n = 16) and non-recurrence (n = 8).
Six 15 μm paraffin sections were removed from each FFPE tissue block and placed in a 1.5 mL eppendorf tube. The tissue sections were then deparaffinized by incubating with 1 mL of xylene for 10 min at room temperature. About 20 μL of I.S. was added followed by centrifugation at 20,000g for 5 min. Since xylene washes most of the TAM and metabolites from the paraffin sections, the supernatant was collected and transferred to a clean eppendorf tube. This procedure was repeated, and the two supernatants were combined followed by an SPE clean-up. Sample purification was performed via an SPE column vacuum manifold (Supelco, PA, USA). Samples were loaded onto the SPE columns previously conditioned with 3 mL of methanol and acetonitrile followed by a wash with 2 mL of 10 % methanol. The SPE cartridges were dried thereafter for 2 min, and the analytes were eluted with 2 mL of 5 % 50 mM ammonium acetate in methanol. Eluates were evaporated to dryness under a stream of nitrogen at 55 °C using a heating module obtained from Thermo Scientific/Pierce (Asheville, NC, USA). The dry extracts were then resuspended in 100 μL of acetonitrile/0.2 % formic acid (50:50).
Liquid chromatography was performed on a 1200 SL series LC system consisting of a binary pump, well-plate autosampler and thermostated column compartment (Agilent Technologies). Separation of TAM and metabolites was carried out using a Zorbax SB-C18 column (150 × 2.1 mm i.d., 3.5 μm particle size, Agilent Technologies) with a column temperature of 40 °C. Mobile phase consisted of 0.2 % formic acid and acetonitrile (60:40) at a flow rate of 0.2 mL/min with a gradient of 40–90 % of acetonitrile over 5 min. About 30 μL of the sample extract was injected onto the LC system. The total run time was 12 min including column equilibration.
MS detection of the analytes was accomplished by a 6410 triple-quadrupole mass spectrometer equipped with an electrospray ion source operating in the positive ion mode (Agilent Technologies). High purity nitrogen was used as the drying gas at a flow rate of 11 L/min with a gas temperature of 350 °C, and the nebulizer pressure was set at 35 psi. The capillary voltage was set at 4,000 V for each compound; however, the fragmentor voltages and the collision energies were operated at different settings for optimization of each analyte (Table 1). Quantitation was performed in multiple-reaction monitoring (MRM) mode, and the transitions of the precursors to product ions are summarized in Table 1. Data acquisition and analysis were performed using Mass Hunter Software v.B.02.01 (Agilent Technologies).

[2] = parameters: method as in PMID 17529893; conditions: frozen tissues (~2 mg), breast cancer patients, single dose of 20 mg TAM, samples 5 h postdrug administration; cited from earlier work

Row | SMILES | Mean concentration in FFPE tissue, tumor recurrent patients [1] | Mean concentration in FFPE tissue, tumor non-recurrent patients [1] | Average concentration in frozen tissue [2] | Range of concentration in frozen tissue [2] | Detection in FFPE tissue of tumor recurrent patients ([1]; some of the tumor recurrent patients (data not shown), possibly below the detection limit of the assay)
1 | CC/C(=C(\c1ccccc1)c1ccc(OCCNC)cc1)c1ccccc1 [DMT, N-desmethyl-tamoxifen] | 324 ± 103 ng/g | 1,256 ± 282.8 ng/g | 23.3 ng/g | 0 to 643 ng/g | 
2 | CC/C(=C(\c1ccc(O)cc1)c1ccc(OCCNC)cc1)c1ccccc1 [Endoxifen, N-desmethyl-4-hydroxy-tamoxifen] | 19.2 ± 5.08 ng/g | 94.6 ± 41.0 ng/g |  |  | not found
3 | CC/C(=C(\c1ccccc1)c1ccc(OCCN(C)C)cc1)c1ccccc1 [TAM, Tamoxifen] | 122 ± 25.2 ng/g | 147 ± 51.7 ng/g | 118 ng/g |  | 
